Test results: patent US20250262167A1, “COMPOUNDS, TARGETS AND PATHWAYS FOR MACROPHAGE MODULATION” (Massachusetts Institute of Technology, priority 2020, published 2025)
Counter-ions that a name gives are not always drawn. Like-named read-outs stand apart in the source and are kept apart here.

How the values were obtained:
[1] = system: hMDMs differentiated into M1 by IFNγ plus TNFα; assay: Reprogramming screen and dosage response on M1-like differentiated macrophages; assay type: cell-based, human; settings: Homo sapiens, Macrophage, 24 h; M2-activating compounds on M1-like macrophages (IFNγ plus TNFα); EC = concentration reaching Z-score cutoff
Protocol: Data were summarized from 3 independent experiments.
(§1) Human macrophages were seeded into optical 384-well plates. Sixteen hours later, medium in M1 plates were replaced by M1 differentiating medium (complete RPMI with 50 ng/mL IFNγ and 50 ng/mL TNFα) and medium in M2 plates by M2 differentiating medium (complete RPMI with 5 ng/mL IL-4 and 5 ng/mL IL-13). After 24 hrs cell differentiation, M1 plates (M1 macrophages) and M2 plates (M2 macrophages) were treated with M2-activating compounds and M1-activating compounds respectively for 24 hrs. Two independent experiments were performed with or without replacing differentiating medium right before treatment. Cell imaging and analysis were performed as indicated above.
To investigate whether the identified compounds could reprogram or reactivate macrophages after M1- or M2-like differentiation, we rescreened the hits on M1- or M2-activated macrophages. hMDMs were activated into M2-like macrophages by IL-4 plus IL-13 or M1-like macrophages by IFNγ plus TNFα. […] 24 hours later, cell images were taken and cell shapes were quantified.
(§2) We also rescreened the hits on differentiated macrophages in the presence of differentiating cytokines: either IL-4 plus IL-13 or IFNγ plus TNFα.

[2] = system: M1-like and M2-like differentiated hMDMs; assay: RNA-seq of differentiated macrophages reprogrammed by compounds; assay type: cell-based, human; settings: compound at EC, 24 hours
Protocol: FIGS. 4A-4F show reprogramming of differentiated macrophages by selected compounds. […] Controls include two differentiated M1 and M2 macrophages, M2 macrophages treated with IFNγ and M1 macrophages treated with IL-4. Gene expression in each sample was measured by RNA-seq separately. […] FIG. 4D show network of GO enriched terms using BiNGO on top 10% central hubs genes (n=1255) of macrophage activation network. Node color and size represent the FDR values of enriched GO terms. […] Shared (FIG. 4E) and unique pathways (FIG. 4F) are shown. Compound targets and FDA-approval information are indicated. […]
Differentially expressed genes were annotated using online functional enrichment analysis tool DAVID (http://david.ncifcrf.gov/). […] To quantify the levels of RNA transcripts, total RNA was extracted from various cells and reverse transcribed by TaqMan® Reverse Transcription Reagents Kit (ABI Catalog No. N8080234), followed by amplification with Sybr Green Master Mix (Roche Catalog No. 04707516001) with specific primers (Table 4) and detected by Roche LightCycler 480. […]
To determine the central hubs of all stimulation conditions by compounds (refer to FIG. 4) reflecting the core macrophage activation network, transcriptional interactions between genes were first determined by ARACNe based on the perturbed transcriptional profiles of 34 compounds as well as IFNγ and IL4 controls. […]

[3] = system: hMDMs differentiated into M2 by IL-4 plus IL-13; assay: Reprogramming screen and dosage response on M2-like differentiated macrophages;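 note: human monocyte-derived macrophages held 24 h in 5 ng/mL IL-4 plus IL-13 before 24 h compound exposure, with cell shape measured from images in 384-well plates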
Protocol: (§3) Shown are comparison of Z-scores between 5 μM or 10 μM of compounds. […] Shown are comparison of Z-scores between 5 μM or 10 μM of compounds. […] EC and fitness of 21 M1-polarizing (triangle) and 19 M2-polarizing compounds (circle) were calculated by the Michaelis-Menten equation and plotted. Data were summarized from 3 independent experiments.
as §1
(§4) To investigate whether the identified compounds could reprogram or reactivate macrophages after M1- or M2-like differentiation, we rescreened the hits on M1- or M2-activated macrophages. hMDMs were activated into M2-like macrophages by IL-4 plus IL-13 or M1-like macrophages by IFNγ plus TNFα. After removing the differentiating cytokines, M2-like macrophages were treated with each of the 166 M1-activating compounds and M1-like macrophages were treated with each of the 180 M2-activating compounds at a final concentration of either 5 μM and 10 μM. 24 hours later, cell images were taken and cell shapes were quantified. […] Dosage responses were carried out with 40 commercial available compounds (21 M1-activating and 19 M2-activating) on polarized macrophages.
as §2

M0 macrophages (hMDMs) = assay: Dosage response of cell shape change on M0 macrophages; assay type: cell-based, human
[4] = system: hMDMs differentiated into M2 by IL-4 plus IL-13; settings: differentiated macrophages;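 note: human monocyte-derived macrophages held 24 h in 5 ng/mL IL-4 plus IL-13 before 24 h compound exposure, with cell shape measured from images in 384-well plates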
Protocol: as §3, §1, §4, §2

[5] = system: bone marrow derived macrophages (BMDMs); assay: Seahorse ECAR (glycolysis) in BMDMs; assay type: cell-based, mouse; settings: macrophages, NOX inhibition
Protocol: FIGS. 21A-21I show DPI stimulates glycolysis through GPR3 and β-arrestin2. FIGS. 21A-21B show DPI-stimulated glycolysis is independent of the NOX activity. […] The mean fluorescence intensity (MFI) of 2-NBDG in cells was measured by flow cytometry and normalized to DMSO controls of wildtype BMDMs. Data are presented as the mean±sd (n=3). […] ImKCs were transfected with siRNA specific for Gpr3 or a scramble siRNA as control. […] Data are presented as the mean±sd (n=4). […] Data are presented as the mean±sd (n=12). […] Abbr2^−/− ImKC were constructed by CRISPR-Cas9-mediated gene editing. […] Data are presented as the mean±sd (n=4). […]
Specific parameters for glycolytic capacity and glycolytic reserve were calculated and summarized based on two independent experiments. […]
FIGS. 29A-29B show comparison of DPI's effect on glycolysis in wild-type and Pkm^−/− BMDMs. […] ImKCs were treated with DMSO or DPI alone (500 nM) or DPI plus ERK1/2 inhibitor (SCH772984, […]) for 6 hrs and the enzymatic activities of PKM2 (c) and GAPDH (d) were measured by colorimetric assay kits (Biovision). […]
OCR and ECAR were measured in isolated tissues or cultured ImKCs using the Seahorse XFe Extracellular Flux Analyzer (Agilent). […] Glucose levels were determined using a glucose (GO) assay kit (Sigma). […] Lactate levels were determined using a lactate assay kit (Eton Bioscience). […]

PKM2 = assay: PKM enzymatic activity (colorimetric kit) in treated ImKCs; assay type: cell-based, mouse; settings: ERK1/2 phosphorylation inhibited
Protocol: Data are presented as the mean±sd (n=4). […] Data are presented as the mean±sd (n=6).
FIGS. 29A-29B show comparison of DPI's effect on glycolysis in wild-type and Pkm^−/− BMDMs. […] FIGS. 29C-29D show activation of PKM2 and GAPDH enzymatic activity by DPI is inhibited by ERK1/2 inhibitor. ImKCs were treated with DMSO or DPI alone (500 nM) or DPI plus ERK1/2 inhibitor (SCH772984, […]) for 6 hrs and the enzymatic activities of PKM2 (c) and GAPDH (d) were measured by colorimetric assay kits (Biovision). Data are presented as the mean±sd (n=6).
The enzymatic activities of PKM and GAPDH were measured using the pyruvate kinase activity assay kit (Biovision, #K709) and GAPDH activity assay kit (Biovision, #K680) according to the manufacturer's protocols, respectively.

[6] = system: human monocyte-derived macrophages (hMDMs); assay: High throughput phenotypic screen of macrophage activation (cell shape, Z-score); assay type: cell-based; settings: known M1-/M2-activating stimuli;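 note: phalloidin and DAPI stained hMDMs imaged by high-content microscopy, cell eccentricity compared with DMSO control by T-test, round morphology scored negative, elongated positive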
Protocol: The Z-score was calculated by T-test to measure the difference of cell morphology between treatment and control. Stimuli had negative Z-scores when induced cells to round morphology and positive scores when induced cells to elongated morphology. […] Equally mixed human monocytes isolated from fresh blood of 4 healthy donors were cultured in vitro with 50 ng/mL M-CSF for 7 days. hMDMs were trypsinized and plated on 384-well plates (5000 cells/well in 50 μL). Cells were recovered in 10 ng/mL M-CSF for 16 hrs and then treated with compounds for 24 hrs. Cells were washed, fixed and stained with Phalloidin and DAPI. The plates were scanned with a high-content microscope with six-fields per well to quantify the cell number and cell morphology. […] The cell eccentricity was calculated to measure the cell morphology. The Z-score was calculated by T-test to measure the difference in cell morphologies between each compound and DMSO control.
Cells were treated with a library of over 4000 individual compounds or drugs at the final concentration of 20 μM using the CyBi-Well simultaneous pipettor (CyBio). […] After 24 hr incubation, supernatants were removed using the microplate washer (Bioteck) and cells were fixed by adding 50 μL 16% paraformaldehyde (Thermo Scientific) with the dispenser for 20 minutes. Cells were then washed with 50 μL 1×PBS twice and incubated for 20 minutes with NucBlue and AF746 Phalloidin (Invitrogen) to stain nucleus and cytoskeleton. Cells were then washed with 50 μL 1×PBS twice and maintained in PBS for the image acquirement. Plates were read in the Opera Phenix high content screening system (PerkinElmer) to photograph cells using 20× objective in 2 fluorescent channels (Blue and FarRed). A total of 6 different fields in each well and an average of 1,000 cells were imaged per well. CellProfiler was used to identify each cell by overlapping signals from its nucleus and cytoskeleton, and calculate the eccentricity as the parameter to measure the cell morphology. The Z-score was calculated by T-test to measure the difference of cell morphology between each treatment and control. For each row of the 384-well plate, total 4 wells with first and last two columns treated with the same concentration of DMSO were combined as the control for the other 20 treatment wells in that row. In the meantime, classic M1 and M2 stimuli were added to generate the gold-standard Z-score cutoffs with M1 or M2 activation. Classic M1 stimuli include LPS (100 ng/mL), IFNγ (50 ng/mL, Peprotech), TNFα (50 ng/mL, Peprotech), or IFNγ plus TNFα. Classic M2 stimuli include IL-10 (10 ng/mL, Peprotech), IL-4 (10 ng/mL, Peprotech), or IL-13 (5 ng/mL, Peprotech).

hMDMs = assay: Flow cytometry of M1 markers (CD80, CD86) and M2 markers (CD206, CD163) in hMDMs; assay type: cell-based, human; settings: 24 hrs
Protocol: FIGS. 7A-7B show morphology and phenotypes of activated macrophages. […] The resulting macrophages were polarized to M1 by IFNγ or M2 by IL4. Then, M1 macrophages were treated with M2-type compound bosutinib ([…]) for 24 hrs, and M2 macrophages were treated with M1-type compound thiostrepton ([…]) for 24 hrs. F-actin was stained and images were acquired by fluorescent microscopy with 60× objective. Cell nuclei are stained with DAPI. Representative data were shown from two independent experiments. […] Shown are the representative staining profiles from three independent experiments. The numbers show mean fluorescent intensity (MFI)+/−standard error of the mean (SEM) for n=3 samples per group.
FIGS. 9A-9C show comparison of the differentially expressed genes induced by selected compounds (FIG. 9A), ligands for novel pathways (FIG. 9B), and controls (IL-4 and IFNγ). […] Shown are the changes of the relative mean fluorescence intensity (MFI) to controls. 0.2 refers to 20% MFI increase.
B6 mice were purchased from the Jackson Laboratory and maintained in the animal facility at the Massachusetts Institute of Technology (MIT). NSG mice were purchased from the Jackson Laboratory and maintained under specific pathogen-free conditions in the animal facilities at MIT. […] The data were analyzed by FlowJo. […]

In the case of C(=N\NC1=NCCN1)/c1c2ccccc2c(/C=N/NC2=NCCN2)c2ccccc12 [Bisantrene dihydrochloride], the EC (M2 Z-score cutoff) [1] is reported as 1.98 µM and the unique pathway perturbed [2] is reported as “perturbed the pathway of DNA topological change”.
For CCCCCCCCc1ccc(CCC(N)(CO)CO)cc1 [FTY720], the EC (M1 Z-score cutoff) ([3]; Homo sapiens, Macrophage, 24 h, read-out: EC) was 0.131 µM, the “Max absolute Z-value” (M0 macrophages (hMDMs)) was −11.58 and the Category (M0 macrophages (hMDMs); M0 macrophages) was “M1 (−4 for M1-activated macrophages)”. For the same compound, the Category [4] was “M1 (−4 for M1-activated macrophages)”.
Nc1ccccc1NC(=O)c1ccc(CNC(=O)OCc2cccnc2)cc1 [MS275] was tested, and the EC ([3]; M1-activating compounds on M2-like macrophages (IL-4 plus IL-13), EC = concentration reaching Z-score cutoff) was 0.811 µM, the Category ([3]; differentiated macrophages) was “M1 (−4 for M1-activated macrophages)” and the Category (M0 macrophages (hMDMs); M0 macrophages) was “M1 (−4 for M1-activated macrophages)”. For the same compound, the EC (M0 macrophages (hMDMs); M0 macrophages, EC = concentration inducing cell morphology changes to reach the M1 or M2 Z-score cutoff, Michaelis-Menten fit, 3 independent experiments, unit of the source corrected) was 1.05 µM, the “Max absolute Z-value” (M0 macrophages (hMDMs); M0 macrophages, Max Z-score from Michaelis-Menten equation, negative = round, positive = elongated) was −7.993 and the unique pathway perturbed [2] was “perturbed the pathway of chromatin assembly”.
COc1cc(C(C)=O)ccc1O [apocynin] was tested, and the “basal level of glycolytic activity” value [5] was “significantly reduced” and the “DPI's effect on PKM2 enzymatic activity” value (PKM2) was “abolished”.
In the case of IFNγ: classic M1 stimulus, the cell shape induced [6] is reported as “round shape”, the “expression of M1 markers CD80 and CD86” value (hMDMs) is reported as “up-regulated” and the “expression of M2 markers CD206 and CD163” value (hMDMs) is reported as “suppressed”.
